Reference: ChEMBL document CHEMBL3085770, “The functional group on (E)-4,4'-disubstituted stilbenes influences toxicity and antioxidative activity in differentiated PC-12 cells” (Bioorg Med Chem Lett, 2013)
Calls of active or inactive are those of the source. No cut-off for these calls is given here.

Columns and labels:
[1] = Cytotoxicity against rat differentiated PC12 cells assessed as cell viability at <= 10 ug/ml after 15 hrs by MTS assay; format: cell-based; conditions: pc-12, 15 h
[2] = tested on: PC-12; assay: Antioxidant activity in rat differentiated PC12 cells assessed as inhibition of H2O2-induced cell death after 15 hrs by MTS assay; format: functional, cell-based
[3] = tested on: Radical scavenging activity; assay: Antioxidant activity assessed as DPPH free radical scavenging activity over 30 mins by spectrophotometry; format: functional
[4] = Chemical stability of the compound in PBS buffer at 1 ug/ml after 24 hrs by fluorescence assay in presence of 0.3% H2O2; format: physicochemical

Stability [4]	SMILES	Activity [1]	Activity [2]	Activity [3]
–	Nc1ccc(/C=C/c2ccc(N)cc2)cc1	Non-toxic	Active	Active
Unstable	CC(=O)c1ccc(/C=C/c2ccc(C(C)=O)cc2)cc1	Non-toxic	–	inactive
Unstable	N#Cc1ccc(/C=C/c2ccc(C#N)cc2)cc1	Non-toxic	–	inactive
–	CC(O)c1ccc(/C=C/c2ccc(C(C)O)cc2)cc1 (stereo not given)	Non-toxic	inactive	inactive
–	Oc1ccc(/C=C/c2ccc(O)cc2)cc1	–	Active	–
–	C(=C\c1ccccc1)/c1ccccc1	Non-toxic	–	inactive
